Measured values as given in patent US12129246B1, “Hydroquinazoline derivatives for the treatment of a disease or disorder” (Novartis AG, priority 2023, dated 2024).
Where two headings read alike, the source gives them in different places.

Key:
human NPR1 = target: T1, human NPR1 (Homo sapiens, UniProt P16066); assay: Cellular cGMP production assay, human NPR1 expressing CHO-K1 cells (CisBio HTRF); type: cell-based; conditions: for AC50: cGMP production, 30 min at 37° C., 12-point dose-response from 30 μM; for Human NPR1 Amax (% of ANP): maximum cGMP production as percentage of the maximum cGMP produced with ANP
T1 construct: host or cells: CHO-K1
T1 sequence (P16066 33-1061): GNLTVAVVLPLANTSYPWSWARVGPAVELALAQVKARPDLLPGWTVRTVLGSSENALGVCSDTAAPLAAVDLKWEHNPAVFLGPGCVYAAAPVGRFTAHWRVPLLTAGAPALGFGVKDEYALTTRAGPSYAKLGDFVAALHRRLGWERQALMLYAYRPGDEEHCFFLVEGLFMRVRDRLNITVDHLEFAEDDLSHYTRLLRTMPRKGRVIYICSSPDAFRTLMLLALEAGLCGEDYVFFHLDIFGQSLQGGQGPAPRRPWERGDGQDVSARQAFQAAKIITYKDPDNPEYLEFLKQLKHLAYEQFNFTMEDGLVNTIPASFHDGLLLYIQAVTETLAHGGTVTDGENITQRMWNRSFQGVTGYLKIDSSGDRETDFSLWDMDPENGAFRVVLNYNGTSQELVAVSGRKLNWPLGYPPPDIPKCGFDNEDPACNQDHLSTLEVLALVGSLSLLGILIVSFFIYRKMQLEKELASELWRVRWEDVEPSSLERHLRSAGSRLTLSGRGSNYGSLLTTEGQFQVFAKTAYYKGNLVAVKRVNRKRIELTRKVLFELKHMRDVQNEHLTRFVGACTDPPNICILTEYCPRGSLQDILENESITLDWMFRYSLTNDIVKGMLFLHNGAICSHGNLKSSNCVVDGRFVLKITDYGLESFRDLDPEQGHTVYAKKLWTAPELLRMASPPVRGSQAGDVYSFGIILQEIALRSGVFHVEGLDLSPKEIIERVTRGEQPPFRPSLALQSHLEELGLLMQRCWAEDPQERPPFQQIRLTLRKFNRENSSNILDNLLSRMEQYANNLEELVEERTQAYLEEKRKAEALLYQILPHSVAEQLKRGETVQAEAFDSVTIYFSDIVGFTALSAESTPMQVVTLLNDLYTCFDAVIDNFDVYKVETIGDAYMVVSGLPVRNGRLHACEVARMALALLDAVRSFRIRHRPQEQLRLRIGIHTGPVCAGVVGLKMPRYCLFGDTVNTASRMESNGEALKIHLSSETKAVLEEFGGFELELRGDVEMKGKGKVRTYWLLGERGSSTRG
Method in brief: (§1)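 CHO-K1 cells expressing human or cynomolgus NPR1 treated with compound (12-point, 3-fold dilutions from 30 μM top) in PBS+0.1% BSA with 1 mM IBMX, 30 min at 37° C. After lysis, cGMP quantified by HTRF competition (cGMP-d2/anti-cGMP-cryptate, 1 h RT, 665 nm emission) against a calibrator standard curve.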

monkey NPR1 = monkey NPR1 (Macaca fascicularis, UniProt A0A7N9DBT9); assay: Cellular cGMP production assay, monkey NPR1 expressing CHO-K1 cells (CisBio HTRF); type: cell-based; conditions: for Monkey NPR1 Amax (% of ANP): maximum cGMP production as percentage of the maximum cGMP produced with ANP
Method in brief: as §1

[1] = cGMP production, monkey NPR1 CHO-K1 cells, 30 min at 37° C., 12-point dose-response from 30 μM, read-out: Monkey NPR1 AC50

Chain of monkey NPR1 (A0A7N9DBT9 entry or part of it): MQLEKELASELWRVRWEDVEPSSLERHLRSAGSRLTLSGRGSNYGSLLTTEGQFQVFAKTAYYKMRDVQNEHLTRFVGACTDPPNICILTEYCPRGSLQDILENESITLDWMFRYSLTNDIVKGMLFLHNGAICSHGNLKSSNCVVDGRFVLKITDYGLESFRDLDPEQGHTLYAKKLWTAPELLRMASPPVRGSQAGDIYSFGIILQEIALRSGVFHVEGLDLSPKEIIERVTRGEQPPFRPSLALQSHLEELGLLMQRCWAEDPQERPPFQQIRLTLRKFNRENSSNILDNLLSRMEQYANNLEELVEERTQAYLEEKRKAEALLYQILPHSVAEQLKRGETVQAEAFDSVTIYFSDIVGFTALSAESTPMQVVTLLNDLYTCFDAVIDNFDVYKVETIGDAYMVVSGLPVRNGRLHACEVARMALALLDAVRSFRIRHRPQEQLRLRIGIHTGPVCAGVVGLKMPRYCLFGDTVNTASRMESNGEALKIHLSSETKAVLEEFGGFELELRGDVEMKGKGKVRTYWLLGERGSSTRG

Row | SMILES | AC50 (human NPR1) | Human NPR1 Amax (% of ANP) (human NPR1) | AC50 (monkey NPR1) | Monkey NPR1 Amax (% of ANP) (monkey NPR1; monkey NPR1 CHO-K1 cells) | AC50 (monkey NPR1; [1])
1 | CC[C@@H](Nc1nc2c(c(N[C@@H](CN3C4CCCC3CC(O)C4)c3cnn(CC)c3)n1)C[C@H](c1cccc(F)c1)CC2)[C@H]1CC[C@H](C(=O)O)CC1 (stereo partly drawn) [Compound 117, (1R,4r)-4-((1R)-1-(((6R)-4-(((1R)-1-(1-ethyl-1H-pyrazol-4-yl)-2-((1R,5S)-3-hydroxy-9-azabicyclo[3.3.1]nonan-9-yl)ethyl)amino)-6-(3-fluorophenyl)-5,6,7,8-tetrahydroquinazolin-2-yl)amino)propyl)cyclohexane-1-carboxylic acid] | 524 nM | 100.635 % of ANP | 500 nM | 109.499 % of ANP | –
2 | CC[C@H]([C@H]1CC[C@H](C(=O)O)CC1)N(C)c1nc2c(c(N[C@@H](CN3CCCCC3)c3cnn(C)c3)n1)C[C@H](c1ccccc1)CC2 [Compound 118, (1R,4r)-4-((R)-1-(methyl((R)-4-(((R)-1-(1-methyl-1H-pyrazol-4-yl)-2-(piperidin-1-yl)ethyl)amino)-6-phenyl-5,6,7,8-tetrahydroquinazolin-2-yl)amino)propyl)cyclohexane-1-carboxylic acid] | 540 nM | 94.446 % of ANP | – | 99.466 % of ANP | 400 nM
3 | CC[C@@H](Nc1nc2c(c(N[C@@H](CN3CCCCC3)c3cnc(C)s3)n1)C[C@H](c1ccccc1)CC2)[C@H]1CC[C@H](C(=O)O)CC1 [Compound 119, (1R,4r)-4-((R)-1-(((R)-4-(((S)-1-(2-methylthiazol-5-yl)-2-(piperidin-1-yl)ethyl)amino)-6-phenyl-5,6,7,8-tetrahydroquinazolin-2-yl)amino)propyl)cyclohexane-1-carboxylic acid] | 542 nM | 89.681 % of ANP | – | 90.965 % of ANP | 378 nM
4 | C[C@H]1CCCN(C[C@H](Nc2nc(N(C)[C@H](C3CC3)[C@H]3CC[C@H](C(=O)O)CC3)nc3c2C[C@H](c2ccccc2)CC3)c2cnn(C)c2)C1 [Compound 120, (1R,4r)-4-((R)-cyclopropyl(methyl((R)-4-(((R)-1-(1-methyl-1H-pyrazol-4-yl)-2-((S)-3-methylpiperidin-1-yl)ethyl)amino)-6-phenyl-5,6,7,8-tetrahydroquinazolin-2-yl)amino)methyl)cyclohexane-1-carboxylic acid] | 553 nM | 96.905 % of ANP | – | 102.755 % of ANP | 427 nM
5 | CC[C@@H](Nc1nc2c(c(N[C@@H](CN3CCC(C)CC3)c3cnn(C)c3)n1)C[C@H](c1ccccc1)CC2)[C@H]1CC[C@H](C(=O)O)CC1 [Compound 121, (1R,4r)-4-((R)-1-(((R)-4-(((R)-1-(1-methyl-1H-pyrazol-4-yl)-2-(4-methylpiperidin-1-yl)ethyl)amino)-6-phenyl-5,6,7,8-tetrahydroquinazolin-2-yl)amino)propyl)cyclohexane-1-carboxylic acid] | 570 nM | 100.330 % of ANP | – | 102.117 % of ANP | 382 nM
6 | CC[C@@H](Nc1nc2c(c(N[C@@H](CN3C[C@H]4CC[C@@H]3C4)c3cnn(CC)c3)n1)C[C@H](c1ccccc1)CC2)[C@H]1CC[C@H](C(=O)O)CC1 [Compound 122, (1R,4r)-4-((R)-1-(((R)-4-(((R)-2-((1R,4S)-2-azabicyclo[2.2.1]heptan-2-yl)-1-(1-ethyl-1H-pyrazol-4-yl)ethyl)amino)-6-phenyl-5,6,7,8-tetrahydroquinazolin-2-yl)amino)propyl)cyclohexane-1-carboxylic acid] | 574 nM | 102.209 % of ANP | – | 99.605 % of ANP | 411 nM
7 | CC[C@@H](Nc1nc2c(c(N[C@@H](CN3CCCC[C@@H]3C)c3cnn(C)c3)n1)C[C@H](c1ccccc1)CC2)[C@H]1CC[C@H](C(=O)O)CC1 [Compound 123, (1R,4r)-4-((R)-1-(((R)-4-(((R)-1-(1-methyl-1H-pyrazol-4-yl)-2-((S)-2-methylpiperidin-1-yl)ethyl)amino)-6-phenyl-5,6,7,8-tetrahydroquinazolin-2-yl)amino)propyl)cyclohexane-1-carboxylic acid] | 592 nM | 103.006 % of ANP | – | 102.761 % of ANP | 377 nM
8 | CC[C@H]([C@H]1CC[C@H](C(=O)O)CC1)N(C)c1nc2c(c(N[C@@H](CN3CCC[C@H](C)C3)c3cnn(C)c3)n1)CN(c1cccc(F)c1)CC2 [Compound 124, (1R,4r)-4-((R)-1-((6-(3-fluorophenyl)-4-(((R)-1-(1-methyl-1H-pyrazol-4-yl)-2-((S)-3-methylpiperidin-1-yl)ethyl)amino)-5,6,7,8-tetrahydropyrido[4,3-d]pyrimidin-2-yl)(methyl)amino)propyl)cyclohexane-1-carboxylic acid] | 617 nM | 106.069 % of ANP | – | 101.428 % of ANP | 406 nM
9 | CC[C@H]([C@H]1CC[C@H](C(=O)O)CC1)N(C)c1nc2c(c(N[C@@H](CN3CCC[C@@H](C)C3)c3cnn(C)c3)n1)C[C@H](c1ccccc1)CC2 [Compound 125, (1R,4r)-4-((R)-1-(methyl((R)-4-(((R)-1-(1-methyl-1H-pyrazol-4-yl)-2-((R)-3-methylpiperidin-1-yl)ethyl)amino)-6-phenyl-5,6,7,8-tetrahydroquinazolin-2-yl)amino)propyl)cyclohexane-1-carboxylic acid] | 619 nM | 106.130 % of ANP | – | 114.072 % of ANP | 410 nM
10 | CC[C@@H](Nc1nc2c(c(N[C@@H](CN3CCCC4(CCC4)C3)c3cnn(CC)c3)n1)C[C@H](c1ccccc1)CC2)[C@H]1CC[C@H](C(=O)O)CC1 [Compound 126, (1R,4r)-4-((R)-1-(((R)-4-(((R)-1-(1-ethyl-1H-pyrazol-4-yl)-2-(6-azaspiro[3.5]nonan-6-yl)ethyl)amino)-6-phenyl-5,6,7,8-tetrahydroquinazolin-2-yl)amino)propyl)cyclohexane-1-carboxylic acid] | 620 nM | 98.906 % of ANP | – | 102.477 % of ANP | 452 nM
11 | CC[C@@H](Nc1nc2c(c(N[C@@H](CN3C4CCCC3CC4)c3csc(C)n3)n1)C[C@H](c1cccc(F)c1)CC2)[C@H]1CC[C@H](C(=O)O)CC1 [Compound 127, (1R,4r)-4-((1R)-1-(((6R)-4-(((1S)-2-(8-azabicyclo[3.2.1]octan-8-yl)-1-(2-methylthiazol-4-yl)ethyl)amino)-6-(3-fluorophenyl)-5,6,7,8-tetrahydroquinazolin-2-yl)amino)propyl)cyclohexane-1-carboxylic acid] | 623 nM | 102.596 % of ANP | 355 nM | 102.089 % of ANP | –
12 | CC[C@H]([C@H]1CC[C@H](C(=O)O)CC1)N(C)c1nc2c(c(N[C@@H](CN3CC4CCC3C4)c3cnn(C)c3)n1)C[C@H](c1ccccc1)CC2 (stereo partly drawn) [Compound 128, (1R,4r)-4-((1R)-1-(((6R)-4-(((1R)-2-(2-azabicyclo[2.2.1]heptan-2-yl)-1-(1-methyl-1H-pyrazol-4-yl)ethyl)amino)-6-phenyl-5,6,7,8-tetrahydroquinazolin-2-yl)(methyl)amino)propyl)cyclohexane-1-carboxylic acid] | 629 nM | 105.430 % of ANP | – | 95.117 % of ANP | 416 nM
13 | CC[C@H]([C@H]1CC[C@H](C(=O)O)CC1)N(C)c1nc2c(c(N[C@@H](CN3CCC[C@H](O)C3)c3cnn(C)c3)n1)C[C@H](c1ccccc1)CC2 [Compound 129, (1R,4r)-4-((R)-1-(((R)-4-(((R)-2-((S)-3-hydroxypiperidin-1-yl)-1-(1-methyl-1H-pyrazol-4-yl)ethyl)amino)-6-phenyl-5,6,7,8-tetrahydroquinazolin-2-yl)(methyl)amino)propyl)cyclohexane-1-carboxylic acid] | 646 nM | 93.751 % of ANP | – | 91.227 % of ANP | 362 nM
